PubChem BioAssay AID1259407 (Chemical Carcinogenesis Research Information System (CCRIS), 2018)
Activity calls are given as the source filed them. How the calls were made is not given here.

Tested on: CCRIS mutagenicity, Ames/micronucleus/aberration tests
Experiment: CCRIS mutagenicity studies
[1] = Test System: AMES SALMONELLA TYPHIMURIUM, Strain/Indicator: TA98, Metabolic Activation: NONE, Method: PREINCUBATION
[2] = Test System: AMES SALMONELLA TYPHIMURIUM, Strain/Indicator: TA100, Metabolic Activation: NONE, Method: PREINCUBATION

Nc1ccc([As](=O)(O)O)cc1
mutagenic call (Test System: AMES SALMONELLA TYPHIMURIUM, Strain/Indicator: TA97, Metabolic Activation: HAMSTER, LIVER, S-9, AROCLOR 1254 (10 OR 30%), Method: PREINCUBATION): inactive; negative | mutagenic call (Test System: AMES SALMONELLA TYPHIMURIUM, Strain/Indicator: TA97, Metabolic Activation: NONE, Method: PREINCUBATION): inactive; negative | mutagenic call (Test System: AMES SALMONELLA TYPHIMURIUM, Strain/Indicator: TA97, Metabolic Activation: RAT, LIVER, S-9, AROCLOR 1254 (10 OR 30%), Method: PREINCUBATION): inactive; negative | mutagenic call (Test System: AMES SALMONELLA TYPHIMURIUM, Strain/Indicator: TA98, Metabolic Activation: HAMSTER, LIVER, S-9, AROCLOR 1254 (10 OR 30%), Method: PREINCUBATION): inactive; negative | mutagenic call [1]: inactive; negative | mutagenic call (Test System: AMES SALMONELLA TYPHIMURIUM, Strain/Indicator: TA98, Metabolic Activation: RAT, LIVER, S-9, AROCLOR 1254 (10 OR 30%), Method: PREINCUBATION): inactive; negative | mutagenic call (Test System: AMES SALMONELLA TYPHIMURIUM, Strain/Indicator: TA100, Metabolic Activation: HAMSTER, LIVER, S-9, AROCLOR 1254 (10 OR 30%), Method: PREINCUBATION): inactive; negative | mutagenic call [2]: inactive; negative | mutagenic call (Test System: AMES SALMONELLA TYPHIMURIUM, Strain/Indicator: TA100, Metabolic Activation: RAT, LIVER, S-9, AROCLOR 1254 (10 OR 30%), Method: PREINCUBATION): inactive; negative | mutagenic call (Test System: AMES SALMONELLA TYPHIMURIUM, Strain/Indicator: TA1535, Metabolic Activation: HAMSTER, LIVER, S-9, AROCLOR 1254 (10 OR 30%), Method: PREINCUBATION): inactive; negative | mutagenic call (Test System: AMES SALMONELLA TYPHIMURIUM, Strain/Indicator: TA1535, Metabolic Activation: NONE, Method: PREINCUBATION): inactive; negative | mutagenic call (Test System: AMES SALMONELLA TYPHIMURIUM, Strain/Indicator: TA1535, Metabolic Activation: RAT, LIVER, S-9, AROCLOR 1254 (10 OR 30%), Method: PREINCUBATION): inactive; negative

O[C@@H]1[C@H]2O[C@H]2c2c(ccc3ccc4ccccc4c23)[C@H]1O
mutagenic call (Test System: E. COLI, Strain/Indicator: CL101P, Metabolic Activation: NONE, Method: PREINCUBATION): active; positive | mutagenic call (Test System: E. COLI, Strain/Indicator: CL102P, Metabolic Activation: NONE, Method: PREINCUBATION): active; positive | mutagenic call (Test System: E. COLI, Strain/Indicator: CL103P, Metabolic Activation: NONE, Method: PREINCUBATION): active; positive | mutagenic call (Test System: E. COLI, Strain/Indicator: CL104P, Metabolic Activation: NONE, Method: PREINCUBATION): active; positive | mutagenic call (Test System: E. COLI, Strain/Indicator: CL105P, Metabolic Activation: NONE, Method: PREINCUBATION): active; positive | mutagenic call (Test System: E. COLI, Strain/Indicator: CL106P, Metabolic Activation: NONE, Method: PREINCUBATION): active; positive

Cc1c(N(C)C)c(=O)n(-c2ccccc2)n1C
mutagenic call (Test System: AMES SALMONELLA TYPHIMURIUM, Strain/Indicator: TA97, Metabolic Activation: NONE, Method: STANDARD PLATE): inactive; negative | mutagenic call (Test System: AMES SALMONELLA TYPHIMURIUM, Strain/Indicator: TA97, Metabolic Activation: RAT, LIVER, S-9, AROCLOR 1254, Method: STANDARD PLATE): inactive; negative | mutagenic call (Test System: AMES SALMONELLA TYPHIMURIUM, Strain/Indicator: TA98, Metabolic Activation: GUINEA PIG, LIVER, S-9, PCB, Method: PREINCUBATION): inactive; negative | mutagenic call (Test System: AMES SALMONELLA TYPHIMURIUM, Strain/Indicator: TA98, Metabolic Activation: HAMSTER, LIVER, S-9, PCB, Method: PREINCUBATION): inactive; negative | mutagenic call (Test System: AMES SALMONELLA TYPHIMURIUM, Strain/Indicator: TA98, Metabolic Activation: MOUSE, LIVER, S-9, PCB, Method: PREINCUBATION): inactive; negative | mutagenic call [1]: inactive; negative | mutagenic call (Test System: AMES SALMONELLA TYPHIMURIUM, Strain/Indicator: TA98, Metabolic Activation: NONE, Method: STANDARD PLATE): inactive; negative | mutagenic call (Test System: AMES SALMONELLA TYPHIMURIUM, Strain/Indicator: TA98, Metabolic Activation: RAT, LIVER, S-9, AROCLOR 1254, Method: STANDARD PLATE): inactive; negative | mutagenic call (Test System: AMES SALMONELLA TYPHIMURIUM, Strain/Indicator: TA98, Metabolic Activation: RAT, LIVER, S-9, PCB, Method: PREINCUBATION): inactive; negative | mutagenic call (Test System: AMES SALMONELLA TYPHIMURIUM, Strain/Indicator: TA100(FR1), Metabolic Activation: NONE, Method: STANDARD PLATE): inactive; negative | mutagenic call (Test System: AMES SALMONELLA TYPHIMURIUM, Strain/Indicator: TA100(FR1), Metabolic Activation: RAT, LIVER, S-9, PHENOBARBITAL AND 3-METHYLCHOLANTHRENE, Method: STANDARD PLATE): inactive; negative | mutagenic call (Test System: AMES SALMONELLA TYPHIMURIUM, Strain/Indicator: TA100, Metabolic Activation: GUINEA PIG, LIVER, S-9, PCB, Method: PREINCUBATION): inactive; negative | mutagenic call (Test System: AMES SALMONELLA TYPHIMURIUM, Strain/Indicator: TA100, Metabolic Activation: HAMSTER, LIVER, S-9, PCB, Method: PREINCUBATION): inactive; negative | mutagenic call (Test System: AMES SALMONELLA TYPHIMURIUM, Strain/Indicator: TA100, Metabolic Activation: MOUSE, LIVER, S-9, PCB, Method: PREINCUBATION): inactive; negative | mutagenic call [2]: inactive; negative | mutagenic call (Test System: AMES SALMONELLA TYPHIMURIUM, Strain/Indicator: TA100, Metabolic Activation: NONE, Method: STANDARD PLATE): inactive; negative | mutagenic call (Test System: AMES SALMONELLA TYPHIMURIUM, Strain/Indicator: TA100, Metabolic Activation: RAT, LIVER, S-9, AROCLOR 1254, Method: STANDARD PLATE): inactive; negative | mutagenic call (Test System: AMES SALMONELLA TYPHIMURIUM, Strain/Indicator: TA100, Metabolic Activation: RAT, LIVER, S-9, PCB, Method: PREINCUBATION): inactive; negative | mutagenic call (Test System: AMES SALMONELLA TYPHIMURIUM, Strain/Indicator: TA100, Metabolic Activation: RAT, LIVER, S-9, PHENOBARBITAL AND 3-METHYLCHOLANTHRENE, Method: STANDARD PLATE): inactive; negative | mutagenic call (Test System: AMES SALMONELLA TYPHIMURIUM, Strain/Indicator: TA102, Metabolic Activation: NONE, Method: STANDARD PLATE): inactive; negative | mutagenic call (Test System: AMES SALMONELLA TYPHIMURIUM, Strain/Indicator: TA102, Metabolic Activation: RAT, LIVER, S-9, AROCLOR 1254, Method: STANDARD PLATE): inactive; negative | mutagenic call (Test System: AMES SALMONELLA TYPHIMURIUM, Strain/Indicator: TA104, Metabolic Activation: NONE, Method: STANDARD PLATE): inactive; negative | mutagenic call (Test System: AMES SALMONELLA TYPHIMURIUM, Strain/Indicator: TA104, Metabolic Activation: RAT, LIVER, S-9, AROCLOR 1254, Method: STANDARD PLATE): inactive; negative | mutagenic call (Test System: CHINESE HAMSTER V-79, Strain/Indicator: V-79/6-THIOGUANINE, Metabolic Activation: NONE): inactive; negative | mutagenic call (Test System: CHINESE HAMSTER V-79, Strain/Indicator: V-79/6-THIOGUANINE, Metabolic Activation: RAT, LIVER, HEPATOCYTES): inactive; negative | mutagenic call (Test System: CHINESE HAMSTER V-79, Strain/Indicator: V-79/OUABAIN, Metabolic Activation: NONE): inactive; negative | mutagenic call (Test System: CHINESE HAMSTER V-79, Strain/Indicator: V-79/OUABAIN, Metabolic Activation: RAT, LIVER, HEPATOCYTES): inactive; negative
